Measured values: the NIST ThermoML archive (doi:10.1016/j.fluid.2008.01.004)
± gives the expanded uncertainty stated by the source.

Assay: mn = molality of the nth substance listed, in mol/kg
Conditions: 101 kPa, Liquid; for molar conductivity: digital conductivity meter; for speed of sound: Sing-around technique in a fixed-path interferometer

## O=P([O-])([O-])[O-].[Na+].[Na+].[Na+] [trisodium phosphate] + O
293.15 K, m1 = 0.0968
  molar conductivity: 0.0206 ± 0.00082 S·m2/mol
  mass density: 1016.97 ± 0.27 kg/m3
293.15 K, m1 = 0.1086
  molar conductivity: 0.0201 ± 0.00081 S·m2/mol
  mass density: 1019.2 ± 0.28 kg/m3
293.15 K, m1 = 0.1133
  molar conductivity: 0.0198 ± 0.00079 S·m2/mol
  mass density: 1020.11 ± 0.28 kg/m3
293.15 K, m1 = 0.1296
  molar conductivity: 0.0189 ± 0.00076 S·m2/mol
  mass density: 1023.21 ± 0.28 kg/m3
293.15 K, m1 = 0.141
  molar conductivity: 0.0185 ± 0.00074 S·m2/mol
  mass density: 1025.39 ± 0.28 kg/m3
293.15 K, m1 = 0.1515
  molar conductivity: 0.0182 ± 0.00073 S·m2/mol
  mass density: 1027.32 ± 0.29 kg/m3
293.15 K, m1 = 0.1638
  molar conductivity: 0.0181 ± 0.00073 S·m2/mol
  mass density: 1029.67 ± 0.29 kg/m3
293.15 K, m1 = 0.1755
  molar conductivity: 0.0176 ± 0.0007 S·m2/mol
  mass density: 1031.84 ± 0.3 kg/m3
293.15 K, m1 = 0.1868
  molar conductivity: 0.0172 ± 0.00069 S·m2/mol
  mass density: 1034.01 ± 0.3 kg/m3
293.15 K, m1 = 0.1954
  molar conductivity: 0.0171 ± 0.00068 S·m2/mol
  mass density: 1035.55 ± 0.3 kg/m3
293.15 K, m1 = 0.2224
  molar conductivity: 0.0162 ± 0.00065 S·m2/mol
  mass density: 1040.71 ± 0.31 kg/m3
293.15 K, m1 = 0.2333
  molar conductivity: 0.016 ± 0.00064 S·m2/mol
  mass density: 1042.76 ± 0.31 kg/m3
293.15 K, m1 = 0.2509
  molar conductivity: 0.0157 ± 0.00063 S·m2/mol
  mass density: 1045.97 ± 0.31 kg/m3
293.15 K, m1 = 0.0089
  mass density: 999.952 ± 0.3 kg/m3
293.15 K, m1 = 0.0105
  mass density: 1000.27 ± 0.25 kg/m3
293.15 K, m1 = 0.0116
  mass density: 1000.49 ± 0.26 kg/m3
293.15 K, m1 = 0.0132
  mass density: 1000.8 ± 0.26 kg/m3
293.15 K, m1 = 0.0183
  mass density: 1001.83 ± 0.26 kg/m3
293.15 K, m1 = 0.0234
  mass density: 1002.81 ± 0.26 kg/m3
293.15 K, m1 = 0.0342
  mass density: 1004.92 ± 0.26 kg/m3
293.15 K, m1 = 0.045
  mass density: 1007.02 ± 0.26 kg/m3
293.15 K, m1 = 0.0563
  mass density: 1009.2 ± 0.26 kg/m3
293.15 K, m1 = 0.0662
  mass density: 1011.09 ± 0.27 kg/m3
293.15 K, m1 = 0.088
  mass density: 1015.29 ± 0.27 kg/m3
298.15 K, m1 = 0.0089
  speed of sound: 1499.3 ± 0.99 m/s
  mass density: 998.77 ± 0.3 kg/m3
298.15 K, m1 = 0.0105
  speed of sound: 1499.8 ± 0.99 m/s
  molar conductivity: 0.0359 ± 0.0014 S·m2/mol
  mass density: 999.088 ± 0.25 kg/m3
298.15 K, m1 = 0.0116
  speed of sound: 1500.2 ± 0.99 m/s
  mass density: 999.3 ± 0.26 kg/m3
298.15 K, m1 = 0.0132
  speed of sound: 1500.5 ± 0.99 m/s
  molar conductivity: 0.0347 ± 0.0014 S·m2/mol
  mass density: 999.611 ± 0.26 kg/m3
298.15 K, m1 = 0.0183
  speed of sound: 1501.8 ± 0.99 m/s
  molar conductivity: 0.0328 ± 0.0013 S·m2/mol
  mass density: 1000.62 ± 0.26 kg/m3
298.15 K, m1 = 0.0234
  speed of sound: 1503.3 ± 0.99 m/s
  molar conductivity: 0.031 ± 0.0012 S·m2/mol
  mass density: 1001.6 ± 0.26 kg/m3
298.15 K, m1 = 0.0342
  speed of sound: 1505.8 ± 0.99 m/s
  molar conductivity: 0.028 ± 0.0011 S·m2/mol
  mass density: 1003.68 ± 0.26 kg/m3
298.15 K, m1 = 0.045
  speed of sound: 1508.5 ± 0.99 m/s
  molar conductivity: 0.0263 ± 0.0011 S·m2/mol
  mass density: 1005.76 ± 0.26 kg/m3
298.15 K, m1 = 0.0563
  speed of sound: 1511.1 ± 1 m/s
  molar conductivity: 0.025 ± 0.001 S·m2/mol
  mass density: 1007.91 ± 0.26 kg/m3
298.15 K, m1 = 0.0662
  speed of sound: 1513.4 ± 1 m/s
  molar conductivity: 0.0239 ± 0.00096 S·m2/mol
  mass density: 1009.78 ± 0.27 kg/m3
298.15 K, m1 = 0.088
  speed of sound: 1518.5 ± 1 m/s
  molar conductivity: 0.0221 ± 0.00089 S·m2/mol
  mass density: 1013.95 ± 0.27 kg/m3
298.15 K, m1 = 0.0968
  speed of sound: 1520.6 ± 1 m/s
  molar conductivity: 0.0217 ± 0.00087 S·m2/mol
  mass density: 1015.61 ± 0.27 kg/m3
298.15 K, m1 = 0.1086
  speed of sound: 1523.3 ± 1 m/s
  molar conductivity: 0.0211 ± 0.00084 S·m2/mol
  mass density: 1017.82 ± 0.27 kg/m3
298.15 K, m1 = 0.1133
  speed of sound: 1524.3 ± 1 m/s
  molar conductivity: 0.0207 ± 0.00083 S·m2/mol
  mass density: 1018.73 ± 0.28 kg/m3
298.15 K, m1 = 0.1296
  speed of sound: 1528 ± 1 m/s
  molar conductivity: 0.0199 ± 0.0008 S·m2/mol
  mass density: 1021.79 ± 0.28 kg/m3
298.15 K, m1 = 0.141
  speed of sound: 1530.7 ± 1 m/s
  molar conductivity: 0.0195 ± 0.00078 S·m2/mol
  mass density: 1023.96 ± 0.28 kg/m3
298.15 K, m1 = 0.1515
  speed of sound: 1532.9 ± 1 m/s
  molar conductivity: 0.0193 ± 0.00077 S·m2/mol
  mass density: 1025.87 ± 0.28 kg/m3
298.15 K, m1 = 0.1638
  speed of sound: 1535.7 ± 1 m/s
  molar conductivity: 0.0191 ± 0.00077 S·m2/mol
  mass density: 1028.19 ± 0.29 kg/m3
298.15 K, m1 = 0.1755
  speed of sound: 1538.3 ± 1 m/s
  molar conductivity: 0.0186 ± 0.00074 S·m2/mol
  mass density: 1030.35 ± 0.29 kg/m3
298.15 K, m1 = 0.1868
  speed of sound: 1540.8 ± 1 m/s
  molar conductivity: 0.018 ± 0.00072 S·m2/mol
  mass density: 1032.5 ± 0.29 kg/m3
298.15 K, m1 = 0.1954
  speed of sound: 1542.7 ± 1 m/s
  molar conductivity: 0.0178 ± 0.00071 S·m2/mol
  mass density: 1034.03 ± 0.3 kg/m3
298.15 K, m1 = 0.2224
  speed of sound: 1548.8 ± 1 m/s
  molar conductivity: 0.0169 ± 0.00067 S·m2/mol
  mass density: 1039.14 ± 0.31 kg/m3
298.15 K, m1 = 0.2333
  speed of sound: 1551.2 ± 1 m/s
  molar conductivity: 0.0168 ± 0.00067 S·m2/mol
  mass density: 1041.17 ± 0.31 kg/m3
298.15 K, m1 = 0.2509
  speed of sound: 1555 ± 1 m/s
  molar conductivity: 0.0163 ± 0.00065 S·m2/mol
  mass density: 1044.36 ± 0.31 kg/m3
298.15 K, m1 = 0.0026
  molar conductivity: 0.0415 ± 0.0017 S·m2/mol
298.15 K, m1 = 0.0039
  molar conductivity: 0.0401 ± 0.0016 S·m2/mol
298.15 K, m1 = 0.0053
  molar conductivity: 0.0392 ± 0.0016 S·m2/mol
298.15 K, m1 = 0.0767
  molar conductivity: 0.0231 ± 0.00092 S·m2/mol
303.15 K, m1 = 0.0089
  speed of sound: 1511.7 ± 0.99 m/s
  mass density: 997.355 ± 0.26 kg/m3
303.15 K, m1 = 0.0105
  speed of sound: 1512.1 ± 0.99 m/s
  molar conductivity: 0.0367 ± 0.0015 S·m2/mol
  mass density: 997.668 ± 0.26 kg/m3
303.15 K, m1 = 0.0116
  speed of sound: 1512.5 ± 0.99 m/s
  mass density: 997.879 ± 0.26 kg/m3
303.15 K, m1 = 0.0132
  speed of sound: 1512.8 ± 0.99 m/s
  molar conductivity: 0.0355 ± 0.0014 S·m2/mol
  mass density: 998.187 ± 0.26 kg/m3
303.15 K, m1 = 0.0183
  speed of sound: 1514.1 ± 0.99 m/s
  molar conductivity: 0.0333 ± 0.0013 S·m2/mol
  mass density: 999.189 ± 0.25 kg/m3
303.15 K, m1 = 0.0234
  speed of sound: 1515.6 ± 0.99 m/s
  molar conductivity: 0.0318 ± 0.0013 S·m2/mol
  mass density: 1000.15 ± 0.25 kg/m3
303.15 K, m1 = 0.0342
  speed of sound: 1518 ± 1 m/s
  molar conductivity: 0.029 ± 0.0012 S·m2/mol
  mass density: 1002.22 ± 0.25 kg/m3
303.15 K, m1 = 0.045
  speed of sound: 1520.6 ± 1 m/s
  molar conductivity: 0.0274 ± 0.0011 S·m2/mol
  mass density: 1004.28 ± 0.26 kg/m3
303.15 K, m1 = 0.0563
  speed of sound: 1523.2 ± 1 m/s
  molar conductivity: 0.0259 ± 0.001 S·m2/mol
  mass density: 1006.41 ± 0.26 kg/m3
303.15 K, m1 = 0.0662
  speed of sound: 1525.5 ± 1 m/s
  molar conductivity: 0.0248 ± 0.00099 S·m2/mol
  mass density: 1008.27 ± 0.26 kg/m3
303.15 K, m1 = 0.088
  speed of sound: 1530.5 ± 1 m/s
  molar conductivity: 0.023 ± 0.00092 S·m2/mol
  mass density: 1012.39 ± 0.27 kg/m3
303.15 K, m1 = 0.0968
  speed of sound: 1532.4 ± 1 m/s
  molar conductivity: 0.0226 ± 0.0009 S·m2/mol
  mass density: 1014.04 ± 0.27 kg/m3
303.15 K, m1 = 0.1086
  speed of sound: 1535 ± 1 m/s
  molar conductivity: 0.0216 ± 0.00086 S·m2/mol
  mass density: 1016.24 ± 0.27 kg/m3
303.15 K, m1 = 0.1133
  speed of sound: 1536.1 ± 1 m/s
  molar conductivity: 0.0215 ± 0.00086 S·m2/mol
  mass density: 1017.13 ± 0.27 kg/m3
303.15 K, m1 = 0.1296
  speed of sound: 1539.6 ± 1 m/s
  molar conductivity: 0.0208 ± 0.00083 S·m2/mol
  mass density: 1020.18 ± 0.28 kg/m3
303.15 K, m1 = 0.141
  speed of sound: 1542.2 ± 1 m/s
  molar conductivity: 0.0201 ± 0.0008 S·m2/mol
  mass density: 1022.32 ± 0.28 kg/m3
303.15 K, m1 = 0.1515
  speed of sound: 1544.4 ± 1 m/s
  molar conductivity: 0.0198 ± 0.00079 S·m2/mol
  mass density: 1024.22 ± 0.28 kg/m3
303.15 K, m1 = 0.1638
  speed of sound: 1547.1 ± 1 m/s
  molar conductivity: 0.0198 ± 0.00079 S·m2/mol
  mass density: 1026.53 ± 0.28 kg/m3
303.15 K, m1 = 0.1755
  speed of sound: 1549.6 ± 1 m/s
  molar conductivity: 0.0193 ± 0.00077 S·m2/mol
  mass density: 1028.66 ± 0.29 kg/m3
303.15 K, m1 = 0.1868
  speed of sound: 1552.1 ± 1 m/s
  molar conductivity: 0.0186 ± 0.00074 S·m2/mol
  mass density: 1030.8 ± 0.29 kg/m3
303.15 K, m1 = 0.1954
  speed of sound: 1553.9 ± 1 m/s
  molar conductivity: 0.0182 ± 0.00073 S·m2/mol
  mass density: 1032.32 ± 0.29 kg/m3
303.15 K, m1 = 0.2224
  speed of sound: 1559.9 ± 1 m/s
  molar conductivity: 0.0173 ± 0.00069 S·m2/mol
  mass density: 1037.39 ± 0.3 kg/m3
303.15 K, m1 = 0.2333
  speed of sound: 1562.2 ± 1 m/s
  molar conductivity: 0.0171 ± 0.00068 S·m2/mol
  mass density: 1039.41 ± 0.3 kg/m3
303.15 K, m1 = 0.2509
  speed of sound: 1565.9 ± 1 m/s
  molar conductivity: 0.0167 ± 0.00067 S·m2/mol
  mass density: 1042.57 ± 0.31 kg/m3
303.15 K, m1 = 0.0026
  molar conductivity: 0.0409 ± 0.0016 S·m2/mol
303.15 K, m1 = 0.0039
  molar conductivity: 0.0404 ± 0.0016 S·m2/mol
303.15 K, m1 = 0.0053
  molar conductivity: 0.0398 ± 0.0016 S·m2/mol
303.15 K, m1 = 0.0767
  molar conductivity: 0.0238 ± 0.00095 S·m2/mol
